Assay results from US20260212886A1, “MAGNETIC RECORDING MEDIUM AND CARTRIDGE” (Sony Group Corporation, priority 2023, published 2026).

Test: Acid dissociation constant (pKa) by potentiometric titration (JIS K 0070:1992)
From the text: The acid dissociation constant (pKa) is a parameter indicating the degree of dissociation of an acid. When the ionization constant of an acid is Ka, the acid dissociation constant is defined by pKa=−log10 Ka.

pKa	Structure (SMILES)
≤ 5	O=C(O)c1ccc(O)cc1 [4-hydroxybenzoic acid]
≤ 5	O=C(O)CC(O)(CC(=O)O)C(=O)O [Citric acid, citric acid]
≤ 5	O=C(O)c1cccc(C(=O)O)c1 [Isophthalic acid, isophthalic acid]

Structure (SMILES)	pKa
O=P(O)(O)c1ccccc1 [Phenylphosphonic acid]	≤ 5
